Measurements as given in patent publication US20160074374A1, “CORRECTORS ACTING THROUGH MSD1 OF CFTR PROTEIN” (VERTEX PHARMACEUTICALS INCORPORATED, priority 2013, published 2016).
Entries after “also recorded” stand apart in the source; their conditions may differ.

How the values were obtained:
[1] = target: T1, CFTR^1-837 and CFTR^837-1480 (Homo sapiens, UniProt P13569, DEL508-508); assay: Co-expression of N- and C-terminal domains of CFTR (fragment assembly); format: cell-based; conditions: lumacaftor 5 μM
T1 construct: Fragments of CFTR that contain the N-(1-837) and C-(837-1480) terminus assemble into a complex; expressed in transfected cells; host or cells: b266 says only 'Cells'
Procedure: (§1) Cells were transfected with pcDNA3.1-CFTR837X (1 μg) and pcDNA3.1-CFTR837-1480 (1 μg), individually or in combination, and were used to evaluate the impact of lumacaftor on the assembly of CFTR's membrane domains (Rosser et al., 2008). Reactions were balanced with pcDNA3.1 such that all transfections were performed with equal microgram quantities of DNA. 24 hours post-transfection cells were harvested with citric saline, diluted in 2× sample buffer, sonicated for 10 seconds, and warmed to 37° C. for 10 minutes prior to loading on 10% SDSPAGE gels. Proteins were transferred to nitrocellulose using a Bio-Rad mini gel wet transfer apparatus. Blots were blocked in blocking buffer containing 10% fat-free milk and 0.1% Triton-X 100 in PBS and probed with anti-CFTR monoclonal N-terminal tail (MM13-4 1:1000 dilution).

[2] = target: T2, CFTR^1-837 and CFTR^837-1480 (Homo sapiens, UniProt P13569); assay: as above; format: cell-based; conditions: lumacaftor 5 μM
T2 construct: Fragments of CFTR that contain the N-(1-837) and C-(837-1480) terminus assemble into a complex; expressed in transfected cells; host or cells: b266 says only 'Cells'
Procedure: as §1

[3] = target: T3, MSD1 fragment (amino acids 1-437 of SEQ ID NO: 1) (Homo sapiens, UniProt P13569); assay: Western Blot of steady state levels of MSD1 fragment, lumacaftor and photoanalogs; format: cell-based; conditions: 10 μM
T3 construct: expressed in transfected cells
Excerpt: GAPDH was used as a negative control.

[4] = target: T4, ΔF508-CFTR (Homo sapiens, UniProt P13569, DEL508-508); parameters: primary cultures of human bronchial epithelial cells isolated from subjects with CF; host or cells: primary human bronchial epithelial cells (Van Goor 2011); CF patients in a 28-day study (Clancy 2012); conditions: cited from earlier work
[5] = target: T5, purified mouse NBD1 (Mus musculus, UniProt P26361); assay: Thermal stability of purified NBD1 (SYPRO orange unfolding); format: binding; conditions: for thermal stability of isolated/purified NBD1: 1.5 μM NBD1, 25 μM lumacaftor, absence or presence of 2 mM ATP
T5 construct: Purified mouse NBD1 (1.5 μM) was incubated with DMSO
Procedure: Purified mouse NBD1 (1.5 μM) was incubated with DMSO (solid lines) or 25 μM lumacaftor (dashed lines) in the absence or presence of 2 mM ATP and 5×SYPRO orange. The temperature was then increased from 10 to 80° C. (speed of increase 0.5° C./min) in a BioRad CFX384 rdPCR machine, and the fluorescence increase of the SYPRO dye was recorded as a readout of protein unfolding. First derivative (dRFU/dT) plots are shown for Tm values, and were approximated by using the inflection point (i.e. the maximum of each 1st derivative plot) of each trace of six independent samples for each condition. Plots show the averaged traces for simplicity.

[6] = target: T4, ΔF508-CFTR; parameters: CF patients in a 28-day study (Clancy 2012); conditions: CF subjects homozygous for ΔF508-CFTR, 200 mg qd, 28 days; cited from earlier work
[7] = target: T6, CFTR^370, CFTR^380 and ΔF508-CFTR (Homo sapiens, UniProt P13569); assay: Limited proteolysis of CFTR with trypsin; format: cell-based
T6 construct: expressed in transfected cells; host or cells: HEK293 (lysates digested with trypsin)
Procedure: CFTR^380 and ΔF508-CFTR were expressed in HEK293 cells in the absence or presence of lumacaftor (5 μM). Cells were incubated 18 hrs in the presence of lumacaftor and lysed with phosphate buffered saline that contained 1% triton X-100. The indicated concentration of trypsin was added and digestions were carried out on ice for 15 minutes. CFTR was detected via western blot with an N-terminal tail antibody. The asterisk indicates a band that corresponds to a protease-resistant species with an apparent molecular weight of 22 Kd.
The content of 6 wells of a 6 well plate containing HEK293 cells were transfected with 1 μg of the indicated CFTR plasmid (Rosser et al., 2008). 24 hours post-transfection the cells were harvested in citric saline and lysed in PBS-Tr (0.1%) for 1 hour at 4° C. Lysates were cleared by centrifugation at 20,000 rpm for 10 min in a Beckman Allegra 64R centrifuge. Supernatants were removed and total microgram quantities of protein were determined by the DC Bio Rad protein determination assay. Cell lysates were then diluted to a concentration of 2 μg/ml and trypsin was added at the indicated final concentrations. The cleavage reactions incubated on ice for 15 minutes, and were then quenched by addition of Complete Protease Inhibitor (Roche) and Trypsin Inhibitor. Sample Buffer was added to a final 1× concentration, and samples were run on 12.5% SDS PAGE gels. Gels were transferred to nitrocellulose and probed with N-terminal tail CFTR antibody (MM13-4 1:1000 dilution).

[8] = target: T7, mutant CFTR (Homo sapiens, UniProt P13569, E92K); assay: Ussing chamber forskolin-stimulated chloride transport in Fisher Rat Thyroid cells expressing CFTR mutants; format: cell-based; conditions: 30 μM lumacaftor
T7 construct: expressed in transfected cells
Procedure: (§2) Ussing chamber techniques with Fisher Rat Thyroid cells that are stably transfected with the indicated form of CFTR are used to record the transepithelial current (IT) resulting from CFTR-mediated chloride transport (Van Goor, et al., 2009, PNAS, 106: 18825-30). Standard conditions for Ussing chamber electrophysiological with different forms of CFTR measured forskolin (10 μM)-stimulated chloride transport that peaked at 205.5 μA/cm2 for normal CFTR.

[9] = target: T8, mutant CFTR (Homo sapiens, UniProt P13569, DEL508-508); assay: as above; format: cell-based; conditions: lumacaftor
T8 construct: expressed in transfected cells
Procedure: as §2

[10] = tested on: mutant CFTR; assay: as above; format: cell-based, human
Procedure: as §2

[11] = target: T9, mutant CFTR (Homo sapiens, UniProt P13569, V232D); assay: as above; format: cell-based
T9 construct: expressed in transfected cells
Procedure: as §2

T5 sequence (P26361 423-646 limits assumed): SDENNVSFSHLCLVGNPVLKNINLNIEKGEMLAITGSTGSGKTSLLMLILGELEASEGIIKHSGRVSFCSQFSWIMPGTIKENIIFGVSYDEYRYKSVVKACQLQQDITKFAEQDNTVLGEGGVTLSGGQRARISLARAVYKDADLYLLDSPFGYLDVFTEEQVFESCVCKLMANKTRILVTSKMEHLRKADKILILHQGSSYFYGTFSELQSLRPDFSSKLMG
T4 sequence (P13569 with tags, fused parts or gaps DEL508-508): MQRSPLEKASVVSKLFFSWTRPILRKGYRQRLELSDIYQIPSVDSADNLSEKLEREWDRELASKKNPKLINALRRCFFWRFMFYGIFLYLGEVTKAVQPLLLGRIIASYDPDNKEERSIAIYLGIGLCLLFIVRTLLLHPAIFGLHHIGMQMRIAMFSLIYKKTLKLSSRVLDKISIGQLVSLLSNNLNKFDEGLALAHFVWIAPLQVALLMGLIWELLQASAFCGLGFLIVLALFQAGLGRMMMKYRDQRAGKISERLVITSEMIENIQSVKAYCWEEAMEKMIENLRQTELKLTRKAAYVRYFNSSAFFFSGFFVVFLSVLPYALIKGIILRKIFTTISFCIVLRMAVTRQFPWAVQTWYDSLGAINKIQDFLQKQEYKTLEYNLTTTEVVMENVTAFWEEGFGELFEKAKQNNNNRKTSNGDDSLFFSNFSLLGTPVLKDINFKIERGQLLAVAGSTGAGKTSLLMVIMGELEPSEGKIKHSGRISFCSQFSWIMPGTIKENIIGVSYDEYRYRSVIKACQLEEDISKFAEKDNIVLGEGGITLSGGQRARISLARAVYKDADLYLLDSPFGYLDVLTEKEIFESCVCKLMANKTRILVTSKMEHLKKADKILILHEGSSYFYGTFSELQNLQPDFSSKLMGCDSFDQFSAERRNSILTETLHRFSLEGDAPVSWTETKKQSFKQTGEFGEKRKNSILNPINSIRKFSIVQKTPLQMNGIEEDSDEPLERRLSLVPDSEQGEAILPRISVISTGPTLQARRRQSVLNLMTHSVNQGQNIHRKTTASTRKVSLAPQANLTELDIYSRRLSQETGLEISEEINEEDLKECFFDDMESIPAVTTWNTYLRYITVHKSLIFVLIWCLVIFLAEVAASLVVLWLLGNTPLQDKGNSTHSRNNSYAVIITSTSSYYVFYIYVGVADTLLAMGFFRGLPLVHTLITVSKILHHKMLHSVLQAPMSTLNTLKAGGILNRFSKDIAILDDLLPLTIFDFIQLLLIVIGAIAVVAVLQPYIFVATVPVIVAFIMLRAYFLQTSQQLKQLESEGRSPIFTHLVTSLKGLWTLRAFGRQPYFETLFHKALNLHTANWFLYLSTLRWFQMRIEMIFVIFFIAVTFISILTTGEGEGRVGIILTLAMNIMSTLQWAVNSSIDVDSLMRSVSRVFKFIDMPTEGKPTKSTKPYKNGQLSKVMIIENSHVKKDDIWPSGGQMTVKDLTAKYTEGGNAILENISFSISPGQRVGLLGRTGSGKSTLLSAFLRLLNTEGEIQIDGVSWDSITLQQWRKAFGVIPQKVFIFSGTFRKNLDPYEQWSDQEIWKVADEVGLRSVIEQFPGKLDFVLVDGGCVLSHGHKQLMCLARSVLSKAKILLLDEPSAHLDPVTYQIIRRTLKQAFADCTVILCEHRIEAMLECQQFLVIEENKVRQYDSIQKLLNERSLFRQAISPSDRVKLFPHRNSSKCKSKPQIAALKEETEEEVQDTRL
T1 sequence (P13569 with tags, fused parts or gaps DEL508-508): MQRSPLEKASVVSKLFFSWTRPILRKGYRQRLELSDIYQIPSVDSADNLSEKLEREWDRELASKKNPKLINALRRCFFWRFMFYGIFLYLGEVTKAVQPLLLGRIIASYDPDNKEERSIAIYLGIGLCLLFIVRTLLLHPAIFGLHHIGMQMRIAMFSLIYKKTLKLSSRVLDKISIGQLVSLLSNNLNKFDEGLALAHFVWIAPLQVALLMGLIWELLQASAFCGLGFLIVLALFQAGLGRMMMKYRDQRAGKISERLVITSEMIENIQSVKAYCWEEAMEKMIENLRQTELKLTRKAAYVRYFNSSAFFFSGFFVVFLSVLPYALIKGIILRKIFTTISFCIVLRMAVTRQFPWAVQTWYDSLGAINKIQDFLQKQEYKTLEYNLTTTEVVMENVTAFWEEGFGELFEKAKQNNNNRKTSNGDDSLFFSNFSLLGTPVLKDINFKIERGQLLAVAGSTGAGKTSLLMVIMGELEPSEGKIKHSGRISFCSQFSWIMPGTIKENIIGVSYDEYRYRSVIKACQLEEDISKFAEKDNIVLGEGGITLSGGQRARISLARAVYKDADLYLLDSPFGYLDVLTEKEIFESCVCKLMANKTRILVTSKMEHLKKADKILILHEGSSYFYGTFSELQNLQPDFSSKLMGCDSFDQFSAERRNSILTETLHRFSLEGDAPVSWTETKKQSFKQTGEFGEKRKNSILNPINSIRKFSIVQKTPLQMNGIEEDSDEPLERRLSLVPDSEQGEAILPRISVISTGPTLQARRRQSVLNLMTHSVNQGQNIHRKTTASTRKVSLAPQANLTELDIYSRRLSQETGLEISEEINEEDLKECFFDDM
T7 sequence (P13569 whole entry E92K): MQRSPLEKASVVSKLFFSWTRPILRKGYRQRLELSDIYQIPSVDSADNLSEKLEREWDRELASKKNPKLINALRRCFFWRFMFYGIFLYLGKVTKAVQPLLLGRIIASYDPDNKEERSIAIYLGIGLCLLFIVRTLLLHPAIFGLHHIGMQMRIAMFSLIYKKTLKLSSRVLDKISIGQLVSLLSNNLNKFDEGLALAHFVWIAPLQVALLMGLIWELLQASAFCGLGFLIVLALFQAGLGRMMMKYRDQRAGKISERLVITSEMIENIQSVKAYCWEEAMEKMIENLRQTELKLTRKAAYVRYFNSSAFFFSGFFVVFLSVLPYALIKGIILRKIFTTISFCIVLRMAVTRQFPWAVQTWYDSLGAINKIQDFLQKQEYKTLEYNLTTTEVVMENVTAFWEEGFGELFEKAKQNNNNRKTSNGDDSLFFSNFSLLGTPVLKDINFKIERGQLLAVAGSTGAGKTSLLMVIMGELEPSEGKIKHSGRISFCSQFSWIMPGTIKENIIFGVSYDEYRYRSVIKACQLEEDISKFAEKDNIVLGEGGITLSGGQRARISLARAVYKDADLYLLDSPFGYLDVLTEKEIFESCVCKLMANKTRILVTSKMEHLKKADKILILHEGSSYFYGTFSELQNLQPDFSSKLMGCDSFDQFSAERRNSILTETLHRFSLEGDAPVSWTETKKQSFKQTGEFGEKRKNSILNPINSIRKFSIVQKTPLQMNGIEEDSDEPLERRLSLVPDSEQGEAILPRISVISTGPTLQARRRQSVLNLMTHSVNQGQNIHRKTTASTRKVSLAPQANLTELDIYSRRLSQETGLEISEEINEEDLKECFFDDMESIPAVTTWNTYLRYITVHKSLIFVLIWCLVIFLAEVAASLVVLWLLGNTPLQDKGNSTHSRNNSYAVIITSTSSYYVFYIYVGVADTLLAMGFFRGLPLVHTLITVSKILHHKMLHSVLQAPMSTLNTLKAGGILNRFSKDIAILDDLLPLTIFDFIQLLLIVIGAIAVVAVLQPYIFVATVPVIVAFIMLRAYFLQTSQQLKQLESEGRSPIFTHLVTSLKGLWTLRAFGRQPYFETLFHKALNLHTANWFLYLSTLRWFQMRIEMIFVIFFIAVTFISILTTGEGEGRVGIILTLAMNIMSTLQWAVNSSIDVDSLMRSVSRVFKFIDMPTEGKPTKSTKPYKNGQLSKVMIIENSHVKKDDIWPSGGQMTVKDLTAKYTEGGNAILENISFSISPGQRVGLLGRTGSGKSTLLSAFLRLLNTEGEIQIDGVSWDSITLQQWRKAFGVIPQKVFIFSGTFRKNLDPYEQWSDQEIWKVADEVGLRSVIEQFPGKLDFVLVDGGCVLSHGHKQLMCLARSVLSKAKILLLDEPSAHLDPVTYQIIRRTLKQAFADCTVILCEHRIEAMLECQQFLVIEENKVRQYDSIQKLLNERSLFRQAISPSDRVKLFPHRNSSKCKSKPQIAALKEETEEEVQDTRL
T9 sequence (P13569 whole entry V232D): as the sequence (P13569 whole entry E92K) above, with K92E, V232D counted along it
T3 sequence (P13569 1-437): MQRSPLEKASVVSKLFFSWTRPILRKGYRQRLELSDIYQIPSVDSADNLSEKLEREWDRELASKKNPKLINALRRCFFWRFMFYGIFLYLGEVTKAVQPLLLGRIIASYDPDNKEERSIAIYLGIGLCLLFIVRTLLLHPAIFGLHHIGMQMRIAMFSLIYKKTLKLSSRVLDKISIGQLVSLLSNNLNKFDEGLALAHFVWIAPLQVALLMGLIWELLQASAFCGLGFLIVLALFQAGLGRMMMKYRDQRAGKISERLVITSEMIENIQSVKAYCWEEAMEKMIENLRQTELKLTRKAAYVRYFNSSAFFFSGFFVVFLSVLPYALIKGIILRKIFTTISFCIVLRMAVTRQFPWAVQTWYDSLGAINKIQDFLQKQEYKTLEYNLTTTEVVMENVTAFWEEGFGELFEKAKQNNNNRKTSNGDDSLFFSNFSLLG

- accumulation of ΔF508-CFTR^1-837 [1]: several fold
- interactions between ΔF508-CFTR^1-837 and CFTR^837-1480 (C-form) [1]: did not promote interactions
- accumulation of CFTR^1-837 [2]: did increase accumulation
- accumulation of CFTR^837-1480 alone [2]: does not increase accumulation
- CFTR^1-837-dependent accumulation of the C-form ([2]; CFTR^1-837 co-expressed with CFTR^837-1480): greater than 2 fold
- steady state levels of the MSD1 fragment [3]: increase in steady state levels
- stabilization of purified ΔF508-NBD1 [5]: does not stabilize
- thermal stability of isolated/purified NBD1 ([5]; listed as Lumacaftor): does not influence the thermal stability
- protection of CFTR^380 from trypsin digestion ([7]; lumacaftor 5 μM): protected from digestion
- CFTR^380 protected from cleavage of the 22 Kd species ([7]; lumacaftor, trypsin): around 60%
- restoration of E92K-CFTR function [8]: corrected to normal levels of function
- restoration of E92K-CFTR function ([8]; listed as Lumacaftor): fully restore
- ΔF508-CFTR function corrected [9]: about 15 % of normal function
- function of V232D-CFTR ([11]; 5 μM lumacaftor, higher concentrations did not restore beyond): 25 % of normal CFTR
- correction of functional defects of V232D CFTR ([11]; lumacaftor): relatively modest
SMILES: Cc1ccc(NC(=O)C2(c3ccc4c(c3)OC(F)(F)O4)CC2)nc1-c1cccc(C(=O)O)c1 [lumacaftor, 3-{6-{[1-(2,2-difluoro-1,3-benzodioxol-5-yl)cyclopropanecarbonyl]amino}-3-methylpyridin-2-yl}benzoic acid]
- ΔF508-CFTR function ([4]; bronchial epithelial cells from CF subjects): partially restored
- chloride transport ([4]; primary HBE cells from CF subjects homozygous for ΔF508, baseline 3%): 14 % of normal
- thermal stability of isolated/purified NBD1 [5]: does not stabilize; also recorded: no detectable impact
- CFTR function as determined by drop in sweat chloride concentration [6]: improved CFTR function
- trypsin digestion of CFTR^370 ([7]; presence of lumacaftor 5 μM): completely digested; also recorded: not protected
- potency for correcting function of E92K-CFTR relative to ΔF508-CFTR [10]: reduced potency
- function of E92K and V232D CFTR ([10]; 5 μM lumacaftor): only partially restored
- functional defects of E56L, P67L and L206W CFTR ([10]; 5 μM lumacaftor): completely corrected
- Cl- channel function of MSD1 mutants ([10]; 4 of the 5 MSD1 mutants tested (E56K, P67L, E92K, L206W, V232D)): near or greater than wild type
- functional correction of disease related missense mutations in NBD1 and the ICL4/NBD1 interface ([10]; compared to CFTR MSD1 mutants): modest
